Measured values: US20050124637A1, “Compounds and compositions as inhibitors of receptor tyrosine kinase activity” (IRM LLC, priority 2003, published 2005)

Assays:
[1] = target: T1, Bmx (Homo sapiens, UniProt P51813); test: Upstate KinaseProfiler radio-enzymatic filter binding assay, Bmx; assay type: biochemical; conditions: 10 μM compound; read-out: percentage inhibition, Bmx
T1 construct: purchased Upstate
T1 sequence (P51813 1-675): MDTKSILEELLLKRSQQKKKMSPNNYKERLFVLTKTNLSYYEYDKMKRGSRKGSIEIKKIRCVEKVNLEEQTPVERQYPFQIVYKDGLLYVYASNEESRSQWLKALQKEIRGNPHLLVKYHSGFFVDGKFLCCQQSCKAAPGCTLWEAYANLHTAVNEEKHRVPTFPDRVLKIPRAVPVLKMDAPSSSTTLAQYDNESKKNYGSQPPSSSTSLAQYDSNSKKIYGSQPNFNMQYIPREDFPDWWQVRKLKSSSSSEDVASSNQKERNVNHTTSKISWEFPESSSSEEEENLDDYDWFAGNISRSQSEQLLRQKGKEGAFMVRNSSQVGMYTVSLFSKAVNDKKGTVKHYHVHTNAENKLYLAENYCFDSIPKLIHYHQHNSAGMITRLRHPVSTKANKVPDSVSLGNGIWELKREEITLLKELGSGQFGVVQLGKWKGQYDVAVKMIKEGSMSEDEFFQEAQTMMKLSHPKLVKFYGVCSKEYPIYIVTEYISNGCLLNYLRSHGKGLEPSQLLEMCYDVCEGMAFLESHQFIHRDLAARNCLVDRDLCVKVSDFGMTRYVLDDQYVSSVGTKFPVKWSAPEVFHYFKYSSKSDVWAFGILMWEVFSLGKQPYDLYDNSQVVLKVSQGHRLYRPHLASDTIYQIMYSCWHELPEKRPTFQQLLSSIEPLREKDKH
Procedure: (§1) Compounds of the invention are assessed for their ability to inhibit individual members of a panel of kinases (a partial, non-limiting list of kinases includes: cSRC, Lck, FGFR3, Flt3, TrkB and PFGFRα). The compounds are tested in duplicates at a final concentration of 10 μM following this generic protocol. Note that the kinase buffer composition and the substrates vary for the different kinases included in the “Upstate KinaseProfiler™” panel. Kinase buffer (2.5 μL, 10×-containing MnCl2 when required), active kinase (0.001-0.01 Units; 2.51 μL), specific or Poly(Glu4-Tyr) peptide (5-500 μM or 0.01 mg/ml) in kinase buffer and kinase buffer (50 μM; 5 μL) are mixed in an eppendorf on ice. A Mg/ATP mix (10 μL; 67.5 (or 33.75) mM MgCl2, 450 (or 225) μM ATP and 1 μCi/μl [γ-^32P]-ATP (3000 Ci/mmol)) is added and the reaction is incubated at about 30° C. for about 10 minutes. The reaction mixture is spotted (20 μL) onto a 2 cm×2 cm P81 (phosphocellulose, for positively charged peptide substrates) or Whatman No. 1 (for Poly (Glu4-Tyr) peptide substrate) paper square. The assay squares are washed 4 times, for 5 minutes each, with 0.75% phosphoric acid and washed once with acetone for 5 minutes. The assay squares are transferred to a scintillation vial, 5 ml scintillation cocktail are added and ^32P incorporation (cpm) to the peptide substrate is quantified with a Beckman scintillation counter. Percentage inhibition is calculated for each reaction.

[2] = target: T2, TrkB (Homo sapiens, UniProt Q16620); test: Upstate KinaseProfiler radio-enzymatic filter binding assay, TrkB; assay type: biochemical; conditions: 10 μM compound; read-out: percentage inhibition, TrkB
T2 construct: purchased Upstate
T2 sequence (Q16620 32-822): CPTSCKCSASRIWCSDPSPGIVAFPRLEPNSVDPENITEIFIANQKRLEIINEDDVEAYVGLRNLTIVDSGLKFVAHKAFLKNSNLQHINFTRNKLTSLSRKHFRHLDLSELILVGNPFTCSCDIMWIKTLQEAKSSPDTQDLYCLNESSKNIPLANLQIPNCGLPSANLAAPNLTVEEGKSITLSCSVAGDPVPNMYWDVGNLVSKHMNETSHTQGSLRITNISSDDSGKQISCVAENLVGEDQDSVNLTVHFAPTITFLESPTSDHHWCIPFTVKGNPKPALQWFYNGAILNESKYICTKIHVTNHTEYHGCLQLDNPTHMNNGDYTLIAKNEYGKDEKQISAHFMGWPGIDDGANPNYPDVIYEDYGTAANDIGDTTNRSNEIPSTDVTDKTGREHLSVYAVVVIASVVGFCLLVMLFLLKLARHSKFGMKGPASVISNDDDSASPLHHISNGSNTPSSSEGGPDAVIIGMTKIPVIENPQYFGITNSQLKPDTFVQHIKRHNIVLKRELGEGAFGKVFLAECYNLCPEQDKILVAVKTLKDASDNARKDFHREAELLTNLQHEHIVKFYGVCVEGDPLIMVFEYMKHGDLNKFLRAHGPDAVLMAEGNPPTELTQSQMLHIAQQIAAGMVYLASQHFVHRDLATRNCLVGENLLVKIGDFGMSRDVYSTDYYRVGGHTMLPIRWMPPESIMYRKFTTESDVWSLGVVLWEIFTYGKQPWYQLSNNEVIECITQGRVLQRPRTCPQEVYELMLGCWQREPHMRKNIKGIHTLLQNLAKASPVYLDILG
Procedure: as §1

[3] = target: T3, c-Src (Homo sapiens, UniProt P12931); test: Upstate KinaseProfiler radio-enzymatic filter binding assay, c-Src; assay type: biochemical; conditions: 10 μM compound; read-out: percentage inhibition, c-Src
T3 construct: purchased Upstate
T3 sequence (P12931 whole entry): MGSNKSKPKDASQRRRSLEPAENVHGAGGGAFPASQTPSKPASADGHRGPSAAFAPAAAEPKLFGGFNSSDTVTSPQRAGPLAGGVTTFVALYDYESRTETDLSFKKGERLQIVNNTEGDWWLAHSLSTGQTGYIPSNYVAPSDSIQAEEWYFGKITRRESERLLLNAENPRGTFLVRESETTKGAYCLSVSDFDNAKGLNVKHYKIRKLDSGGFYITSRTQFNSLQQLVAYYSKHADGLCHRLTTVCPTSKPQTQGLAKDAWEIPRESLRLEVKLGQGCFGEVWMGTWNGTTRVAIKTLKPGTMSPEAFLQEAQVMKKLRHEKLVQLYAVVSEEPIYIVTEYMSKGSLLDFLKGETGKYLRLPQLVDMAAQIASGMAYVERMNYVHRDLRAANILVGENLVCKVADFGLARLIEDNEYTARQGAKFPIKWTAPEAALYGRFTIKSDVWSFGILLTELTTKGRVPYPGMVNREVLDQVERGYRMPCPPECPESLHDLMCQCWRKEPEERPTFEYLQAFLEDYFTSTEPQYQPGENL
Procedure: as §1

[4] = target: T4, Abl (Homo sapiens, UniProt P00519); test: Upstate KinaseProfiler radio-enzymatic filter binding assay, Abl; assay type: biochemical; conditions: 10 μM compound; read-out: percentage inhibition, Abl
T4 construct: purchased Upstate
T4 sequence (P00519 whole entry, species assumed): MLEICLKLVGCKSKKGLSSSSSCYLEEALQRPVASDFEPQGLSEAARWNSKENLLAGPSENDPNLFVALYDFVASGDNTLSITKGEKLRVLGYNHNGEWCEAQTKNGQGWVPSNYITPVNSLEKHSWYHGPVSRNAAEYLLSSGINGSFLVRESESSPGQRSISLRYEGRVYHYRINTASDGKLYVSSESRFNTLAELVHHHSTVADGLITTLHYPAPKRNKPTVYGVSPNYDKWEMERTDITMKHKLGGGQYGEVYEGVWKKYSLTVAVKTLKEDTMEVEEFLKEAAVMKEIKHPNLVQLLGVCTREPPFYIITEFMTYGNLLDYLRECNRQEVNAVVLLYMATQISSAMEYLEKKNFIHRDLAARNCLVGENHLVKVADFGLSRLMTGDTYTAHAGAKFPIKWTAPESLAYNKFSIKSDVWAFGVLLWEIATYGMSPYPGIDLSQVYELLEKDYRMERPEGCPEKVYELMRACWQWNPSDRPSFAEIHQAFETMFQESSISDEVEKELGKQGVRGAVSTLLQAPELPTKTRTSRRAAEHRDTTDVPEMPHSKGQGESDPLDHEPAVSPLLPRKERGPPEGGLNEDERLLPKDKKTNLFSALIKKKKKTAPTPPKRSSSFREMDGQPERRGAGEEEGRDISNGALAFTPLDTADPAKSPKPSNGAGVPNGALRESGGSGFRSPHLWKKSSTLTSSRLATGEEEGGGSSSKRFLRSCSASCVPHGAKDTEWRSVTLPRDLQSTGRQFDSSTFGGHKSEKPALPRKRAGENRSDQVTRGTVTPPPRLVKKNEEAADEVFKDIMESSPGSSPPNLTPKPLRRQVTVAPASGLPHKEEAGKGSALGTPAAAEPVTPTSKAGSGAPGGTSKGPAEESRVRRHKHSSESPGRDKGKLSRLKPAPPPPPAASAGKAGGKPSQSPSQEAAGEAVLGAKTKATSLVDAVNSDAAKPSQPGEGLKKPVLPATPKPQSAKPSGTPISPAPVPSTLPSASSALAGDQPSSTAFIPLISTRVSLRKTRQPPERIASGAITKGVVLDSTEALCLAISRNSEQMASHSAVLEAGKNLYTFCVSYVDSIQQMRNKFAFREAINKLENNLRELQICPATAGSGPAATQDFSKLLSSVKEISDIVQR
Procedure: (§2) Compounds of the invention are assessed for their ability to inhibit individual members of a panel of kinases (a partial, non-limiting list of kinases includes: cSRC, Lck, FGFR3, Flt3, TrkB and PFGFRα). The compounds are tested in duplicates at a final concentration of 10 μM following this generic protocol. Note that the kinase buffer composition and the substrates vary for the different kinases included in the “Upstate KinaseProfiler™” panel. Kinase buffer (2.5 μL, 10×-containing MnCl2 when required), active kinase (0.001-0.01 Units; 2.51 μL), specific or Poly(Glu4-Tyr) peptide (5-500 μM or 0.01 mg/ml) in kinase buffer and kinase buffer (50 μM; 5 μL) are mixed in an eppendorf on ice. A Mg/ATP mix (10 μL; 67.5 (or 33.75) mM MgCl2, 450 (or 225) μM ATP and 1 μCi/μl [γ-^32P]-ATP (3000 Ci/mmol)) is added and the reaction is incubated at about 30° C. for about 10 minutes. […] The assay squares are transferred to a scintillation vial, 5 ml scintillation cocktail are added and ^32P incorporation (cpm) to the peptide substrate is quantified with a Beckman scintillation counter. Percentage inhibition is calculated for each reaction.

[5] = target: T5, Flt3 (Homo sapiens, UniProt P36888); test: Upstate KinaseProfiler radio-enzymatic filter binding assay, Flt3; assay type: biochemical; conditions: 10 μM compound; read-out: percentage inhibition, Flt3
T5 construct: purchased Upstate
T5 sequence (P36888 27-993): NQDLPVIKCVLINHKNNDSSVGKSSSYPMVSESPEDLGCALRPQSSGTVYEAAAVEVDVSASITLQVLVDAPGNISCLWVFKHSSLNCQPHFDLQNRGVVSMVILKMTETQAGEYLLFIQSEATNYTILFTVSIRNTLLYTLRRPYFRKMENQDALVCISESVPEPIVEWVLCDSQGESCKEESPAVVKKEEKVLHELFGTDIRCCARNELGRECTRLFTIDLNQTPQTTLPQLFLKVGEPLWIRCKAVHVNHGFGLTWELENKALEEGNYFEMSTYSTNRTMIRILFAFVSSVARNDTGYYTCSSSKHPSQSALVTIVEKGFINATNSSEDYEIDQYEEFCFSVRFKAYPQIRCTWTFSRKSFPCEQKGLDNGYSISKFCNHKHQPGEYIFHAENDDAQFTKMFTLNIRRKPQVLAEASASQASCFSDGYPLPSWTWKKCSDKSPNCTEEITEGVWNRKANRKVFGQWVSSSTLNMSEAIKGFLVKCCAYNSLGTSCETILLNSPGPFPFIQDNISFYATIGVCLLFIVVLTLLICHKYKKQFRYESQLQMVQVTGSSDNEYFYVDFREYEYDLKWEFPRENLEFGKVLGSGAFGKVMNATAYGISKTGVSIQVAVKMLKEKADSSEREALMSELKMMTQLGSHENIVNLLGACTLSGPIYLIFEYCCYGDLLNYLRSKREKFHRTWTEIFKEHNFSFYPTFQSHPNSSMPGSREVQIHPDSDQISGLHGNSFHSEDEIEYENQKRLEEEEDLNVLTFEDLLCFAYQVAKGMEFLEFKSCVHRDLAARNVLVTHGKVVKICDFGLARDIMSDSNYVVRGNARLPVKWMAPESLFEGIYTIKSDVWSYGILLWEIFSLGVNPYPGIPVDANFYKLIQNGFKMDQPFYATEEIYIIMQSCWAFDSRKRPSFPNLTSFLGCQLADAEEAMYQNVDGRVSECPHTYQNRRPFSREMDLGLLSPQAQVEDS
Procedure: as §1

[6] = target: T6, Lck (Homo sapiens, UniProt P06239); test: Upstate KinaseProfiler radio-enzymatic filter binding assay, Lck; assay type: biochemical; conditions: 10 μM compound; read-out: percentage inhibition, Lck
T6 construct: purchased Upstate
T6 sequence (P06239 whole entry): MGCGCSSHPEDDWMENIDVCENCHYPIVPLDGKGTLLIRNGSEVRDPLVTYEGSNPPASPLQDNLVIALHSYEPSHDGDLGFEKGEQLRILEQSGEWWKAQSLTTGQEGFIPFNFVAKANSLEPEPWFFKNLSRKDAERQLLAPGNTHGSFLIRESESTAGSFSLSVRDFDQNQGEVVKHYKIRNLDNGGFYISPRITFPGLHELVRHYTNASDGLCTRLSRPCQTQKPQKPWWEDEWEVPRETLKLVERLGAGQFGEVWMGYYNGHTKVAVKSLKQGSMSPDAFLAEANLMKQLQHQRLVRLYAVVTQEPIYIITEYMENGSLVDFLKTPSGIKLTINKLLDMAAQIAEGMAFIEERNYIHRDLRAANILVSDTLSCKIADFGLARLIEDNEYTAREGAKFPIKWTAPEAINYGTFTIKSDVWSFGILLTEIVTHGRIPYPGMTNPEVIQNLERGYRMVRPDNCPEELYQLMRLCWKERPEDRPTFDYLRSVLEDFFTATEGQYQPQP
Procedure: as §1

[7] = target: T7, Rsk1 (Homo sapiens, UniProt Q15418); test: Upstate KinaseProfiler radio-enzymatic filter binding assay, Rsk1; assay type: biochemical; conditions: 10 μM compound; read-out: percentage inhibition, Rsk1
T7 construct: purchased Upstate
T7 sequence (Q15418 whole entry, species assumed): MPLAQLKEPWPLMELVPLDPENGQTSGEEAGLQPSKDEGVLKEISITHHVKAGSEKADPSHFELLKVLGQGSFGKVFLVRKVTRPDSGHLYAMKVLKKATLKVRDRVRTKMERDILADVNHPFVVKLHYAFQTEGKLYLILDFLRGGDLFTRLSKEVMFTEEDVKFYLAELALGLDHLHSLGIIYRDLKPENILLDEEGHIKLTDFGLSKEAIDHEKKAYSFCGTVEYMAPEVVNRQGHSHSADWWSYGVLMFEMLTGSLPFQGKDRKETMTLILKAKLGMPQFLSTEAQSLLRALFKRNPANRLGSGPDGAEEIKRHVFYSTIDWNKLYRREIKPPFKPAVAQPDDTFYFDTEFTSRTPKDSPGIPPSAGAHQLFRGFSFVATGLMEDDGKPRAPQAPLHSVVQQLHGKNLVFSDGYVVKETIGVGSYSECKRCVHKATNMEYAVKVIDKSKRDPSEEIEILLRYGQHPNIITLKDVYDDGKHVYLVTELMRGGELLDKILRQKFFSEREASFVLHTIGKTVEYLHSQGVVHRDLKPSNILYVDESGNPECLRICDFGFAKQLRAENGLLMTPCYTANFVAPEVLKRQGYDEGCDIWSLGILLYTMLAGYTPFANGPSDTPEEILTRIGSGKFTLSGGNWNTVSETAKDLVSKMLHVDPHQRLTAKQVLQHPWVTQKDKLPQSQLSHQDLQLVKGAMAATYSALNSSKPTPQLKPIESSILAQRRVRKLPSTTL
Procedure: as §2

[8] = target: T8, FGFR3 (Homo sapiens, UniProt P22607); test: Upstate KinaseProfiler radio-enzymatic filter binding assay, FGFR3; assay type: biochemical; conditions: 10 μM compound; read-out: percentage inhibition, FGFR3
T8 construct: purchased Upstate
T8 sequence (P22607 23-806): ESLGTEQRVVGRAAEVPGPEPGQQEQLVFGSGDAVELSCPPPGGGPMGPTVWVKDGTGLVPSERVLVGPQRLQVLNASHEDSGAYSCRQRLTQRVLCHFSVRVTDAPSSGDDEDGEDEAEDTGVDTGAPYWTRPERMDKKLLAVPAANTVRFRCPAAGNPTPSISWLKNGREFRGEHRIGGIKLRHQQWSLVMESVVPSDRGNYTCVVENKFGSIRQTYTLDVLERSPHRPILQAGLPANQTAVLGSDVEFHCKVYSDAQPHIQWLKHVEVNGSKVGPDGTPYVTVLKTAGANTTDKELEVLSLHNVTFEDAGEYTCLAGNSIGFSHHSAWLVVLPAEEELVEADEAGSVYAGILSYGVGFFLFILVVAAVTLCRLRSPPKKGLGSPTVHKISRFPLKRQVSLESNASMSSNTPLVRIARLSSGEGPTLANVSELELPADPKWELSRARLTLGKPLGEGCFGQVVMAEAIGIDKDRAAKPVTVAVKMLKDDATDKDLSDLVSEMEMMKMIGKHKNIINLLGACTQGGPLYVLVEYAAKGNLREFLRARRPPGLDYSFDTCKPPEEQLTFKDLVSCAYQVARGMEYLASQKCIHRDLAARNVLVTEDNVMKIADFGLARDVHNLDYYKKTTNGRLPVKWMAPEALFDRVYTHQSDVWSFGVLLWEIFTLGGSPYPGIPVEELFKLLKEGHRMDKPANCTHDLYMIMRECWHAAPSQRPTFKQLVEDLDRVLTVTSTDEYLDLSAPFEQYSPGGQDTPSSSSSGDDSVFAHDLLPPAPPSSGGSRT
Procedure: as §2

[9] = target: T9, purified GST-Flt-3 (Homo sapiens, UniProt P36888); test: Flt-3 tyrosine protein kinase assay, 33P incorporation from γ-33P-ATP into poly-EY; assay type: biochemical; conditions: purified GST-Flt-3, 10 μM ATP; read-out: IC50 in the assay described in example 13
T9 sequence (P36888 27-993): T5 sequence (P36888 27-993)
Procedure: The activity is assayed in the presence or absence of different concentrations of inhibitors, by measuring the incorporation of ^33P from γ-^33P-ATP into appropriate substrates.
Tyrosine protein kinase assay with purified GST-Flt-3 is carried out in a final volume of 40 μL containing 500 ng of enzyme in kinase buffer (30 mM Tris-HCl (pH7.5), 3 mM MnCl2, 15 mM MgCl2, 1.5 mM DTT, 15 μM Na3VO4, 7.5 mg/ml PEG, 0.25 μM poly-EY(Glu, Tyr), 1% DMSO (at highest concentration of compound), 10 μM ATP and γ-^33P-ATP (0.1 μCi)). Two solutions are made: the first solution of 10 μl contains the Flt-3 enzyme and the inhibitor. The second solution contains the substrate (poly-EY), ATP, and γ-^33P-ATP in 30 μl of kinase buffer. Both solutions are mixed on 96-well PVDF filter plates (Millipore, Bedford, Mass., USA), previously wetted with 70% ethanol and rinsed with 1M Tris (7.4). The reaction is incubated at room temperature for 20 minutes, stopped with 0.1% phosphoric acid and then filtered through the plate using a vacuum manifold, allowing the substrate to bind to the membrane. The plates are then washed 5 times with 0.1% phosphoric acid, mounted in Packard TopCount 96-well adapter plate, and 50 μL of Microscint™ (Packard) is added to each well before counting. […]

[10] = system: Ba/F3-Flt3-ITD cells; test: Ba/F3-Flt3-ITD cell proliferation/cytotoxicity (Yo-Pro); assay type: cell-based; conditions: Ba/F3 cells dependent on mutant Flt3, 48 hours, read-out: IC50 in the assay described by example 14
Source text: Compounds that have differential activity (more than or equal to 10 fold difference in sensitivity between Flt3+ cell lines and Flt3− cell lines are selected for further study.
The cell lines used for the initial screening are sub-lines of Ba/F3 cells that are engineered to over-express mutant or wild-type (non-mutated) Flt3 following infection with a retrovirus expressing appropriate Flt3 cDNAs. The parent cell line, Ba/F3 is dependent on interleukin-3 for proliferation, and when deprived of IL-3, the cells rapidly cease proliferation and die. The retrovirus expresses Flt3 from the retrovirual LTR and the neo gene from an IRES site. Ba/F3 cells are selected in G418 and analyzed for expression of Flt3 by fluorescence activated cell sorting (FACS). Cell lines with two different Flt3 mutations are used. One mutant expresses a Flt-3 that has a 14 amino acid duplication in the juxtamembrane domain encoded by exon 11, the specific duplication being . . . VDFREYEYDLKWEF . . . […]
Yo-Pro-1 iodide (Molecular Probes) is added to the cells at a final concentration of 2.5 μM in NaCl/Na-citrate buffer. The cells are incubated with Yo-Pro for 10 minutes at room temperature and then read on a fluorimeter for determination of cytotoxicity. Next, the cells are lysed with NP40/EDTA/EGTA buffer, incubated at room temperature for 90 minutes and read for the determination of proliferation. […]

| inhibition at 10 µM [1] | inhibition at 10 µM [2] | inhibition at 10 µM [3] | inhibition at 10 µM [4] | inhibition at 10 µM [5] | inhibition at 10 µM [6] | inhibition at 10 µM [8] | IC50 [9] | Compound | inhibition at 10 µM [7] | IC50 [10] |
| --- | --- | --- | --- | --- | --- | --- | --- | --- | --- | --- |
| 71% | 99% | 98% | 81% | 99% | 99% | – | – | CS(=O)(=O)c1ccc(Nc2nc(N3CCOCC3)nc3c2ncn3-c2cscn2)cc1 [Compound 503, (4-Methanesulfonyl-phenyl)-(2-morpholin-4-yl-9-thiazol-4-yl-9H-purin-6-yl)-amine] | – | – |
| 86% | 99% | 99% | 98% | 100% | 95% | 98% | – | CS(=O)(=O)c1ccc(Nc2nc(NCc3ccccn3)nc3c2ncn3-c2cscn2)cc1 [Compound 554, N^6-(4-Methanesulfonyl-phenyl)-N^2-pyridin-2-ylmethyl-9-thiazol-4-yl-9H-purine-2,6-diamine] | – | – |
| – | – | – | – | – | – | – | 7 nM | NC1CCC(Nc2nc(Nc3ccc(C(=O)N4CCCCC4)cc3)c3ncn(-c4ccsc4)c3n2)CC1 (stereo not drawn) [{4-[2-(4-amino-cyclohexylamino)-9-thiophen-3-yl-9H-purin-6-ylamino]-phenyl}-piperidin-1-yl-methanone] | – | 5 nM |

| Compound | inhibition at 10 µM [1] | inhibition at 10 µM [2] | inhibition at 10 µM [3] | inhibition at 10 µM [4] | inhibition at 10 µM [5] | inhibition at 10 µM [6] | inhibition at 10 µM [8] | IC50 [9] | inhibition at 10 µM [7] | IC50 [10] |
| --- | --- | --- | --- | --- | --- | --- | --- | --- | --- | --- |
| CN1CCC(N(C)c2nc(Nc3ccc(N4CCOCC4)cc3)c3ncn(-c4cscn4)c3n2)CC1 [Compound 539, N^2-Methyl-N^2-(1-methyl-piperidin-4-yl)-N^6-(4-morpholin-4-yl-phenyl)-9-thiazol-4-yl-9H-purine-2,6-diamine] | 90% | 99% | 97% | – | 100% | 99% | – | – | 82% | – |
